From patent publication US11370784B2 (MISSION THERAPEUTICS LIMITED, priority 2016, dated 2022)

Target: USP30 (Homo sapiens (Human), UniProt Q70CQ3)
Test: USP30 biochemical IC50 assay
Settings: fluorescence polarisation, TAMRA labelled peptide linked to ubiquitin as substrate; enzyme and compound incubated 30 min at room temp; read-out: IC50 range
Method: Reactions were performed in duplicate in black 384 well plates (small volume, Greiner 784076) in a final reaction volume of 21 μl. Either 1 μl of 50% DMSO or diluted compound was added to the plate. USP30 was diluted in reaction buffer (40 mM Tris, pH 7.5, 0.005% Tween 20, 0.5 mg/ml BSA, 5 mM beta-mercaptoethanol) to the equivalent of 0.05 μl/well and 10 μl of diluted USP30 was added to the compound. Enzyme and compound were incubated for 30 min at room temp. Reactions were initiated by the addition of 50 nM of TAMRA labelled peptide linked to ubiquitin via an iso-peptide bond as fluorescence polarisation substrate. Reactions were read immediately after addition of substrate and following a 2 h incubation at room temperature. Readings were performed on a Pherastar Plus (BMG Labtech). λ Excitation 540 nm; λ Emission 590 nm.

Chain of USP30 (Q70CQ3 57-517): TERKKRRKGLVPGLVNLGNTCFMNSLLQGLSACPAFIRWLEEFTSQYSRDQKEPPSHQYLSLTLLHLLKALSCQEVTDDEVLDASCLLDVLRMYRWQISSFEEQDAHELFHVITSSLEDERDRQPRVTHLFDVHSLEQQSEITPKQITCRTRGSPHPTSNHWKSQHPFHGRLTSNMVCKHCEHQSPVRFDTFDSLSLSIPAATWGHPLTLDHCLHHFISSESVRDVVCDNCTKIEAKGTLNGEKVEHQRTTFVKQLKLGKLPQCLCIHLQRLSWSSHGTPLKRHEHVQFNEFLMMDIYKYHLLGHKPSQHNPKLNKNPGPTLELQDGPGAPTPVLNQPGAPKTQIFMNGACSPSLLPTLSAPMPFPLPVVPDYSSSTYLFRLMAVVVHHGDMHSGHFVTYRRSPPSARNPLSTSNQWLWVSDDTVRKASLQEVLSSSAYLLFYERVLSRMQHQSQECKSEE

Row | Compound | IC50
1 | N#CN1CCCC(C(=O)Nc2cc(-c3ccccc3)[nH]n2)C1 (centres unmarked) [Example 38, 1-Cyano-N-(5-phenyl-1H-pyrazol-3-yl)piperidine-3-carboxamide] | 1000 to 10000 nM
2 | N#CN1CCCC(C(=O)Nc2ccc(-c3ccccc3)cn2)C1 (centres unmarked) [Example 39, 1-Cyano-N-(5-phenylpyridin-2-yl)piperidine-3-carboxamide] | 1000 to 10000 nM
3 | N#CN1CCCC(C(=O)Nc2cc(-c3ccccc3)ccn2)C1 (centres unmarked) [Example 40, 1-Cyano-N-(4-phenylpyridin-2-yl)piperidine-3-carboxamide] | 1000 to 10000 nM
4 | N#CN1CCCC(C(=O)Nc2cc(-c3ccccc3)no2)C1 (centres unmarked) [Example 41, 1-Cyano-N-(3-phenylisoxazol-5-yl)piperidine-3-carboxamide] | 1000 to 10000 nM
5 | N#CN1CCCC(F)(C(=O)Nc2nc3ccc(-c4cn[nH]c4)cc3s2)C1 (centres unmarked) [Example 50, N-(6-(1H-Pyrazol-4-yl)benzo[d]thiazol-2-yl)-1-cyano-3-fluoropiperidine-3-carboxamide] | 1000 to 10000 nM
6 | N#Cc1cccc(-c2ccnc(NC(=O)[C@@H]3CN(C#N)CCO3)c2)c1 [Example 54, (S)-4-Cyano-N-(4-(3-cyanophenyl)pyridin-2-yl)morpholine-2-carboxamide] | 1000 to 10000 nM
7 | N#CN1CCC[C@H](C(=O)Nc2ncc(-c3ccccc3)s2)C1 [Example 56, (S)-1-Cyano-N-(5-phenylthiazol-2-yl)piperidine-3-carboxamide] | 1000 to 10000 nM
8 | N#Cc1cccc(-c2ccnc(NC(=O)[C@H]3CCCN(C#N)C3)c2)c1 [Example 57, (S)-1-Cyano-N-(4-(3-cyanophenyl)pyridin-2-yl)piperidine-3-carboxamide] | 1000 to 10000 nM
9 | N#CN1CC(C(=O)Nc2nc3ccc(-c4cn[nH]c4)cc3s2)CC(F)(F)C1 (centres unmarked) [Example 59, N-(6-(1H-Pyrazol-4-yl)benzo[d]thiazol-2-yl)-1-cyano-5,5-difluoropiperidine-3-carboxamide] | 1000 to 10000 nM
10 | N#Cc1ccc2cnc(NC(=O)[C@H]3CN(C#N)CCO3)cc2c1 [Example 65, (R)-4-Cyano-N-(6-cyanoisoquinolin-3-yl)morpholine-2-carboxamide] | 1000 to 10000 nM
11 | N#Cc1ccnc(N2CCC(NC(=O)[C@H]3CN(C#N)CCO3)C2)c1 (stereo partly drawn) [Example 66, (2R)-4-Cyano-N-(1-(4-cyanopyridin-2-yl)pyrrolidin-3-yl)morpholine-2-carboxamide] | 1000 to 10000 nM
12 | CN1CCN(C#N)C[C@@H]1C(=O)Nc1ncc(-c2ccccc2)s1 [Example 68] | 1000 to 10000 nM
13 | CS(=O)(=O)N1CCN(C#N)CC1C(=O)Nc1ncc(-c2ccccc2)s1 (centres unmarked) [Example 71, 4-Cyano-1-(methylsulfonyl)-N-(5-phenylthiazol-2-yl)piperazine-2-carboxamide] | 1000 to 10000 nM
14 | N#CN1CCC[C@](F)(C(=O)Nc2ccc(-c3ccn[nH]3)cn2)C1 [Example 72, (R)—N-(5-(1H-Pyrazol-5-yl)pyridin-2-yl)-1-cyano-3-fluoropiperidine-3-carboxamide] | 100 to 1000 nM
15 | N#Cc1cccc(-c2cc(NC(=O)C3(F)CCCN(C#N)C3)on2)c1 (centres unmarked) [Example 73, 1-Cyano-N-(3-(3-cyanophenyl)isoxazol-5-yl)-3-fluoropiperidine-3-carboxamide] | 100 to 1000 nM
16 | N#CN1CCC[C@](F)(C(=O)Nc2cc(-c3cccc(Cl)c3)on2)C1 [Example 74, (R)—N-(5-(3-Chlorophenyl)isoxazol-3-yl)-1-cyano-3-fluoropiperidine-3-carboxamide] | < 100 nM
17 | N#CN1CCC[C@](F)(C(=O)Nc2ccc(-n3cccn3)cn2)C1 [Example 77, (R)—N-(5-(1H-Pyrazol-1-yl)pyridin-2-yl)-1-cyano-3-fluoropiperidine-3-carboxamide] | 100 to 1000 nM
18 | N#Cc1cccc(-n2cnc(NC(=O)[C@@]3(F)CCCN(C#N)C3)c2)c1 [Example 79, (R)-1-Cyano-N-(1-(3-cyanophenyl)-1H-imidazol-4-yl)-3-fluoropiperidine-3-carboxamide] | 100 to 1000 nM
19 | N#Cc1cccc(-n2cc(NC(=O)[C@@]3(F)CCCN(C#N)C3)nn2)c1 [Example 82, (R)-1-Cyano-N-(1-(3-cyanophenyl)-1H-1,2,3-triazol-4-yl)-3-fluoropiperidine-3-carboxamide] | 100 to 1000 nM
20 | N#Cc1cccc(-n2cnc(NC(=O)[C@@]3(F)CCCN(C#N)C3)n2)c1 [Example 83, (R)-1-Cyano-N-(1-(3-cyanophenyl)-1H-1,2,4-triazol-3-yl)-3-fluoropiperidine-3-carboxamide] | 100 to 1000 nM

Next, values leading:

Row | IC50 | Compound
21 | 100 to 1000 nM | CCCOc1cc(NC(=O)C2CCCN(C#N)C2)ccc1-c1ccn[nH]1 (centres unmarked) [Example 36, 1-Cyano-N-(3-propoxy-4-(1H-pyrazol-5-yl)phenyl)piperidine-3-carboxamide]
22 | 100 to 1000 nM | N#CN1CCCC(F)(C(=O)Nc2ncc(-c3ccccc3)s2)C1 (centres unmarked) [Example 42, 1-Cyano-3-fluoro-N-(5-phenylthiazol-2-yl)piperidine-3-carboxamide]
23 | 100 to 1000 nM | N#CN1CCCC(F)(C(=O)Nc2cn(-c3ccccc3)cn2)C1 (centres unmarked) [Example 43, 1-Cyano-3-fluoro-N-(1-phenyl-1H-imidazol-4-yl)piperidine-3-carboxamide]
24 | 100 to 1000 nM | N#CN1CCCC(F)(C(=O)Nc2cc(-c3ccccc3)on2)C1 (centres unmarked) [Example 45, 1-Cyano-3-fluoro-N-(5-phenylisoxazol-3-yl)piperidine-3-carboxamide]
25 | 100 to 1000 nM | N#CN1CCO[C@@H](C(=O)Nc2cc(-c3cccc(C(F)(F)F)c3)no2)C1 [Example 51, (R)-4-Cyano-N-(3-(3-(trifluoromethyl)phenyl)isoxazol-5-yl)morpholine-2-carboxamide]
26 | 100 to 1000 nM | N#Cc1cccc(-c2ccnc(NC(=O)[C@@]3(F)CCCN(C#N)C3)c2)c1 [Example 52, (R)-1-Cyano-N-(4-(3-cyanophenyl)pyridin-2-yl)-3-fluoropiperidine-3-carboxamide]
27 | < 100 nM | N#Cc1cccc(-c2ccnc(NC(=O)[C@H]3CN(C#N)CCO3)c2)c1 [Example 53, (R)-4-Cyano-N-(4-(3-cyanophenyl)pyridin-2-yl)morpholine-2-carboxamide]
28 | 100 to 1000 nM | N#CN1CCO[C@@H](C(=O)Nc2cc(-c3cccc(Cl)c3)cnn2)C1 [Example 62, (R)—N-(5-(3-Chlorophenyl)pyridazin-3-yl)-4-cyanomorpholine-2-carboxamide]
29 | 100 to 1000 nM | N#Cc1cccc(-c2cc(NC(=O)C3(F)CCCN(C#N)C3)no2)c1 (centres unmarked) [Example 64, 1-Cyano-N-(5-(3-cyanophenyl)isoxazol-3-yl)-3-fluoropiperidine-3-carboxamide]
30 | < 100 nM | N#CN1CCC[C@](F)(C(=O)Nc2cc(-c3cccc(Cl)c3)no2)C1 [Example 76, (R)—N-(3-(3-Chlorophenyl)isoxazol-5-yl)-1-cyano-3-fluoropiperidine-3-carboxamide]
31 | < 100 nM | N#CN1CCC[C@](F)(C(=O)Nc2ccc(-c3cccc4cn[nH]c34)cn2)C1 [Example 84, (R)—N-(5-(1H-Indazol-7-yl)pyridin-2-yl)-1-cyano-3-fluoropiperidine-3-carboxamide]
32 | < 100 nM | N#CN1CCC[C@](F)(C(=O)Nc2ccc(-c3cccc4[nH]ncc34)cn2)C1 [Example 85, (R)—N-(5-(1H-Indazol-4-yl)pyridin-2-yl)-1-cyano-3-fluoropiperidine-3-carboxamide]
33 | < 100 nM | N#CN1CCC[C@](F)(C(=O)Nc2cnc(-c3cccc4cn[nH]c34)cn2)C1 [Example 86, (R)—N-(5-(1H-Indazol-7-yl)pyrazin-2-yl)-1-cyano-3-fluoropiperidine-3-carboxamide]
34 | < 100 nM | N#CN1CCC[C@](F)(C(=O)Nc2cnc(-c3cccc4[nH]ncc34)cn2)C1 [Example 87, (R)—N-(5-(1H-Indazol-4-yl)pyrazin-2-yl)-1-cyano-3-fluoropiperidine-3-carboxamide]
35 | < 100 nM | N#CN1CCC[C@](F)(C(=O)Nc2ccc(-c3cccc4cn[nH]c34)nn2)C1 [Example 88, (R)—N-(6-(1H-indazol-7-yl)pyridazin-3-yl)-1-cyano-3-fluoropiperidine-3-carboxamide]
36 | < 100 nM | N#CN1CCC[C@](F)(C(=O)Nc2ccc(-c3nccc4cn[nH]c34)cn2)C1 [Example 89, (R)—N-(5-(1H-Pyrazolo[3,4-c]pyridin-7-yl)pyridin-2-yl)-1-cyano-3-fluoropiperidine-3-carboxamide]
37 | < 100 nM | N#CN1CCC[C@](F)(C(=O)Nc2ccc(-c3cccc4[nH]ncc34)nn2)C1 [Example 91, (R)—N-(6-(1H-Indazol-4-yl)pyridazin-3-yl)-1-cyano-3-fluoropiperidine-3-carboxamide]
38 | < 100 nM | N#CN1CCC[C@](F)(C(=O)Nc2ncc(-c3cccc4cn[nH]c34)cn2)C1 [Example 92, (R)—N-(5-(1H-Indazol-7-yl)pyrimidin-2-yl)-1-cyano-3-fluoropiperidine-3-carboxamide]
